The values that follow come from patent publication US12599580B2, “Composition comprising a lipid compound, a triglyceride, and a surfactant, and methods of using the same” (BASF AS, priority 2013, dated 2026).

Series [1] in a line: Solubility of salts in surfactants and co-solvents. It is filed as physicochemical. The text has this: Salts prepared from monovalent counter ions are all highly soluble in surfactants according to the present disclosure and excellent pre-concentrates and SMEDDS can be prepared.
Series [2] can be described thus: Phase 1 study, individual variability in pharmacokinetics at 600 mg. It counts as in vivo, healthy subjects (humans). Particulars: single oral dose 600 mg, composition No. 27, healthy male subjects. The protocol: Phase 1 study of 2-((5Z,8Z,11Z,14Z,17Z)-icosa-5,8,11,14,17-pentaenyloxy)butanoic acid (API) assessing the safety, tolerability, PK, and pharmacodynamics (PD) has been performed in healthy individuals. Each dose group consisted of 6 healthy subjects. The initial dose API received was 5 mg, and the maximum dose was 600 mg. Data presented here are with an API dose of 600 mg. This formulation included Tween 20 (40 wt %), Miglyol 812N (30 wt %) and API (30 wt %). The API was mixed with other components of the composition as described under “General procedures.” The formulation for this example corresponds to composition No. 27 of Example 1. A minimum of 10 days intervene before each dose escalation. Escalating doses were administered to the groups sequentially.

The nature of series [3]: Phase 1 study, escalating single oral doses 5 to 600 mg. Particulars: single oral doses between 5 to 600 mg, healthy subjects. It is filed as in vivo, healthy subjects (humans). The protocol: Phase 1 study of 2-((5Z,8Z,11Z,14Z,17Z)-icosa-5,8,11,14,17-pentaenyloxy)butanoic acid (API) assessing the safety, tolerability, PK, and pharmacodynamics (PD) has been performed in healthy individuals. Each dose group consisted of 6 healthy subjects. The initial dose of API received was 5 mg, and the maximum dose of API was 600 mg. The API was mixed with other components of the formulations according to Table 20, the premix was filled into capsules and administered orally to humans.
A minimum of 10 days intervene before each dose escalation. Escalating doses are administered to the groups sequentially.

Series [4] in a line: Solubility of the API in water. It is filed as physicochemical. The text has this: (§1) Thus, low bioavailability is expected.
A further series in a line: Permeability of the API. It is filed as in vitro ADME.
Description: as §1

Series [5] concerns APOE*3Leiden.CETP transgenic mouse model. Particulars: cited from earlier work.
Series [6] is described as follows: Phase 1 study, food effect (fed and fasted state), single oral dose. It counts as in vivo, healthy subjects (humans). Particulars: human, plasma; for AUC(0-t): composition No. 27 in capsules, healthy male subjects, read-out: AUC0-24 h. The source says:
Phase 1 study of 2-((5Z,8Z,11Z,14Z,17Z)-icosa-5,8,11,14,17-pentaenyloxy)butanoic acid (API) assessing the safety, tolerability, PK, and pharmacodynamics (PD) have been performed in healthy individuals. Each group consisted of 6 healthy subjects. The formulation according to the present disclosure included Tween 20 (40 wt %), Miglyol 812N (30 wt %) and API (30 wt %). The API was mixed with other components of the composition as described under “General procedures.” The formulation of this example corresponds to composition No. 27 of Example 1. The premix was filled into capsules and administered orally to humans.

Series [7] in a line: Phase 1 study, pharmacokinetics in male and female, 300 mg b.i.d for 14 days. It counts as in vivo, healthy subjects (humans). Particulars: for AUC / Cmax: human, plasma, oral, composition No. 27; for AUC: read-out: Geometric mean AUC0-τ; for Cmax: read-out: Geometric mean Cmax. The protocol: Phase 1 study of 2-((5Z,8Z,11Z,14Z,17Z)-icosa-5,8,11,14,17-pentaenyloxy)butanoic acid (API) assessing the safety, tolerability, PK, and pharmacodynamics (PD) has been performed in healthy individuals. Each dose group consisted of 6 healthy subjects. An API dose of 300 mg b.i.d was given orally to males and females for 14 consecutive days. The formulation given included Tween 20 (40 wt %), Miglyol 812N (30 wt %) and API (30 wt %). The API was mixed with other components in the formulation as described under “General procedures.” The formulation of this example corresponds to composition No. 27 of Example 1.

Where [8] appears, read: male, po, 100 mg, Fasted, single oral dose 100 mg API.
Where [9] appears, read: male, po, 100 mg, Fed, single oral dose 100 mg API.

Structures can show the parent of a compound that is named as a salt. Where two headings read alike, the source gives them in different places.

Turning to `CC/C=C\C/C=C\C/C=C\C/C=C\C/C=C\CCCCOC(CC)C(=O)O` (stereo not shown) [magnesium salt, magnesium 2-((5Z,8Z,11Z,14Z,17Z)-icosa-5,8,11,14,17-pentaenyloxy)butanoate], the “solubility in surfactants and co-solvents” value in series [1] is “medium solubility”.

One may read the half-life as the time in which the quantity being followed falls by half. A high value points to slow loss. Regarding `CC/C=C\C/C=C\C/C=C\C/C=C\C/C=C\CCCCOC(CC)C(=O)O` (stereo not shown) [API, 2-((5Z,8Z,11Z,14Z,17Z)-icosa-5,8,11,14,17-pentaenyloxy)butanoic acid], in series [2], the “% CV (relative variability) of AUC0-24” value was roughly 15% and the “% CV (relative variability) of Cmax” value is “approximately 10%”. In addition, the “increase of exposure (Cmax and AUC0-24) with dose” value in series [3] is “higher than dose-proportional manner”. Moreover, the solubility in water entry in series [4] was “low solubility in water”. Further, in the series “Permeability of the API”, the permeability result is listed as “low permeability”. Moreover, in series [5], the “HDL cholesterol as compared to a control” value is “increased”, the “atherosclerotic lesion areas in the aorta as compared to a control” value was “decreased” and the “total cholesterol as compared to a control” value is given as “decreased”. Further, the Tmax in series [6] (both sexes, oral, healthy male and female subjects receiving single doses, read-out: mean Tmax) lay in the range of 1 to 2 h. In series [6] (setting [8]), the Cmax was 2800 ng/mL, the half-life was 6.36 ± 3.13 h and the AUC(0-t) turned out to be 14000 ng·h/mL. For the same molecule, the Tmax in series [6] (male, po, 100 mg, Fasted, single oral dose 100 mg API, read-out: Tmax) stood at 1.4 h. For the same molecule, in series [6] (setting [9]), the Cmax amounted to 2700 ng/mL, the half-life is 6.29 ± 2.13 h and the AUC(0-t) stood at 15000 ng·h/mL. In addition, the Tmax in series [6] (male, po, 100 mg, Fed, single oral dose 100 mg API, read-out: Tmax) stood at 3.6 h. Moreover, the “gender differences in pharmacokinetics (Cmax, AUC0-24)” value in series [7] (300 mg b.i.d, males and females, 14 consecutive days) is “no gender differences in pharmacokinetics”. Moreover, in series [7] (Day 14, 300 mg b.i.d), the “AUC Ratio E/M” value came out at 0.937 and the “Cmax Ratio E/M” value was found to be 1.12. Moreover, in series [7] (Female, Day 14, 300 mg b.i.d), the AUC turned out to be 75800 ng·h/mL and the Cmax was found to be 15800 ng/mL. In series [7] (Male, Day 14, 300 mg b.i.d), the AUC was found to be 80900 ng·h/mL and the Cmax was 14100 ng/mL.
